Read-outs that look alike come from different tables or passages of the source.
Tests used:
[1] = Pharmacokinetics of selexipag and ACT-333679 after oral and i.v. selexipag in subjects with stable PAH (Phase 3 switch study); format: in vivo, human; settings: for AUC / Cmax: human, plasma, steady state; for AUC: read-out: AUCτ, ss Geom. Mean; for Cmax: read-out: Cmax, ss Geom. Mean
Experimental: This was a prospective, multicenter, open-label, single-sequence, cross-over, Phase 3 study. Based on the dose of selexipag received at study entry, subjects were allocated to one of the following groups, selexipag 200-1000 μg b.i.d. or selexipag 1200-1600 μg b.i.d. See, FIG. 1. The study comprised the following periods:
(ii) Treatment and observation period: The treatment and observation period included the following consecutive periods: • Period 1 included oral selexipag pre-treatment period for 1 day, in-hospital. This period started with intake of the morning dose of oral selexipag on Day 1 at Visit 2 and ended the following day, before initiation of the first infusion of i.v. selexipag. • Period 2 included i.v. selexipag treatment period for 36 hours [3 infusions], in-hospital. This period started in the morning of Day 2 at Visit 2 with the start of the first infusion of i.v. selexipag and ended in the evening of Day 3 at Visit 2 before the evening administration of oral selexipag. Administration of oral selexipag was interrupted during the i.v. selexipag treatment period. • Period 3 included oral selexipag post-treatment period for 7 to 11 day. This period started in the evening of Day 3 at Visit 2 with the administration of oral selexipag and ended 7-11 days later, at Visit 3.
Selexipag was provided as a dry powder to be reconstituted as an injectable solution for i.v. administration. Before administration, selexipag dry powder was to be reconstituted and diluted with sterile 0.9% NaCl solution. Each subject received an i.v. selexipag dose that corresponded to the subject's individual stable dose of oral selexipag. […] See, Table 4.
The intravenous infusion took place over a 87-minute period (2 infusions on Day 2 and 1 infusion on Day 3)
The following PK endpoints were analyzed for selexipag and its active metabolite, ACT-333679, after oral selexipag in Period 1 and after i.v. selexipag administration in Period 2. See, FIG. 2. • The area under the plasma-concentration time curve (AUC) during a dose interval at steady state (AUCτ, ss). • The maximum plasma concentration at steady state (Cmax, ss). • The time to reach maximum plasma concentration at steady state (tmax, ss). • Trough plasma concentration at steady state (Ctrough, ss).

[2] = Vital signs, ECG, laboratory variables and WHO FC during switch from oral to i.v. selexipag in subjects with stable PAH; format: in vivo, human
Experimental: This was a prospective, multicenter, open-label, single-sequence, cross-over, Phase 3 study. Based on the dose of selexipag received at study entry, subjects were allocated to one of the following groups, selexipag 200-1000 μg b.i.d. or selexipag 1200-1600 μg b.i.d. See, FIG. 1. The study comprised the following periods: (ii) Treatment and observation period: The treatment and observation period included the following consecutive periods: • Period 1 included oral selexipag pre-treatment period for 1 day, in-hospital. This period started with intake of the morning dose of oral selexipag on Day 1 at Visit 2 and ended the following day, before initiation of the first infusion of i.v. selexipag. • Period 2 included i.v. selexipag treatment period for 36 hours [3 infusions], in-hospital. This period started in the morning of Day 2 at Visit 2 with the start of the first infusion of i.v. selexipag and ended in the evening of Day 3 at Visit 2 before the evening administration of oral selexipag. Administration of oral selexipag was interrupted during the i.v. selexipag treatment period. • Period 3 included oral selexipag post-treatment period for 7 to 11 day. This period started in the evening of Day 3 at Visit 2 with the administration of oral selexipag and ended 7-11 days later, at Visit 3. The endpoints analyzed for (i) Period 1, Period 2, and Period 3 and follow-up period combined (ii) Period 1 and Period 2 combined, and (iii) Period 2 and Period 3 combined included discontinuations due to prostacyclin-associated AEs, discontinuations due to any AEs, AEs and SAEs, prostacyclin-associated AEs, PAH-related AEs, change from baseline in vital signs (systolic blood pressure [SBP], diastolic blood pressure [DBP], and pulse rate) and body weight, ECG abnormalities, marked laboratory abnormalities, and change from baseline in WHO FC.

[3] = selexipag versus placebo; cited from earlier work
[4] = Period 1 (oral selexipag), total, N = 20
[5] = Period 2 (iv selexipag), total, N = 20
[6] = Period 2, high dose cohort (1200-1600 μg), N = 12
[7] = Period 2, low dose cohort (200-1000 μg), N = 8
[8] = Period 3 (oral selexipag) + Follow-up, total, N = 20

## CC(C)N(CCCCOCC(=O)NS(C)(=O)=O)c1cnc(-c2ccccc2)c(-c2ccccc2)n1 [selexipag, 2-{4-[(5,6-diphenylpyrazin-2-yl)(propan-2-yl)amino]butoxy}-N-(methanesulfonyl)acetamide]
[1]; Period 2 vs Period 1
  tmax, ss between the i.v. and oral selexipag periods: comparable
[1]; after i.v. selexipag, 450-1800 μg b.i.d. dose range
  slope of dose proportional increase in exposure: 0.798
[1]; iv, Period 2 (i.v. selexipag)
  AUC: 18.8 ng·h/mL
  Cmax: 7.8 ng/mL
[1]; Period 1 (oral selexipag)
  AUC: 8.7 ng·h/mL
  Cmax: 3.9 ng/mL
[1]; i.v. to oral dose ratio 1.125
  dose-normalized geometric mean ratio (i.v./oral selexipag) for AUCτ, ss (90% CI): 2.13 (1.67, 2.70)
  dose-normalized geometric mean ratio (i.v./oral selexipag) for Cmax, ss (90% CI): 1.98 (1.62, 2.43)
[2]; [4]
  Incidence of DBP < 50 (mmHg): 0 n (%)
  Incidence of DBP decrease from baseline > 20 (mmHg): 1 (5.0) n (%)
  Incidence of DBP ≥ 100 (mmHg): 0 n (%)
  Incidence of SBP < 90 (mmHg): 0 n (%)
  Incidence of SBP decrease from baseline > 40 (mmHg): 0 n (%)
  Incidence of SBP ≥ 160 (mmHg): 0 n (%)
[2]; Period 2
  subjects with QTcF prolongation to >450 ms: 3 subjects
  subjects with QTcF prolongation to >480 ms: 4 subjects
[2]; [5]
  Incidence of DBP < 50 (mmHg): 5 n (%)
  Incidence of DBP decrease from baseline > 20 (mmHg): 3 n (%)
  Incidence of DBP ≥ 100 (mmHg): 0 n (%)
  Incidence of SBP < 90 (mmHg): 2 n (%)
  Incidence of SBP decrease from baseline > 40 (mmHg): 2 n (%)
  Incidence of SBP ≥ 160 (mmHg): 1 n (%)
[2]; Period 2, infusion 1
  mean change from pre- to post-infusion in heart rate: 2.1 bpm
[2]; Period 2, infusion 2
  mean change from pre- to post-infusion in heart rate: 0.1 bpm
[2]; Period 2, infusion 3
  mean change from pre- to post-infusion in heart rate: 3.5 bpm
[2]; [6]
  Incidence of DBP < 50 (mmHg): 3 n (%)
  Incidence of DBP decrease from baseline > 20 (mmHg): 2 n (%)
  Incidence of DBP ≥ 100 (mmHg): 0 n (%)
  Incidence of SBP < 90 (mmHg): 1 n (%)
  Incidence of SBP decrease from baseline > 40 (mmHg): 1 n (%)
  Incidence of SBP ≥ 160 (mmHg): 1 n (%)
[2]; [7]
  Incidence of DBP < 50 (mmHg): 2 (25.0) n (%)
  Incidence of DBP decrease from baseline > 20 (mmHg): 1 (12.5) n (%)
  Incidence of DBP ≥ 100 (mmHg): 0 n (%)
  Incidence of SBP < 90 (mmHg): 1 (12.5) n (%)
  Incidence of SBP decrease from baseline > 40 (mmHg): 1 (12.5) n (%)
  Incidence of SBP ≥ 160 (mmHg): 0 n (%)
[2]; [8]
  Incidence of DBP < 50 (mmHg): 0 n (%)
  Incidence of DBP decrease from baseline > 20 (mmHg): 2 (10.0) n (%)
  Incidence of DBP ≥ 100 (mmHg): 0 n (%)
  Incidence of SBP < 90 (mmHg): 0 n (%)
  Incidence of SBP decrease from baseline > 40 (mmHg): 0 n (%)
  Incidence of SBP ≥ 160 (mmHg): 0 n (%)
[2]; Visit 2 Day 2 prior to the start of i.v. infusion
  subjects (of the 7 with QTcF prolongation in Period 2) who already had QTcF prolongation to >450 ms in Period 1: 6
[2]; any subject
  AE of hypotension: no AE of hypotension
  changes in systolic blood pressure of >40 mmHg: No changes
[2]; at Visit 3 (Day 12±2 days)
  hemoglobin, mean change from baseline: 1.2 g/L
[2]; baseline (129.4 g/L) to Visit 2 Day 3
  hemoglobin, mean change from baseline: -5.7 g/L
[2]; during the study, any subject
  changes in WHO FC: No changes
[2]; human, in vivo
  changes from baseline in other hematology and clinical chemistry variables: unremarkable
[3]
  risk of the primary composite end point of death or a complication related to pulmonary arterial hypertension: significantly lower

Reference: US20220323437A1, “METHODS FOR TREATING PULMONARY ARTERIAL HYPERTENSION” (ACTELION PHARMACEUTICALS LTD, priority 2019, published 2022)
